Laboratory results reported in paper PMC8708985, “Regulation of D-Aspartate Oxidase Gene Expression by Pyruvate Metabolism in the Yeast Cryptococcus humicola” (Microorganisms, 2021).

Molecular target: T1, ChDDO (Vanrija humicola, UniProt Q75WF1)
T1 construct: gene DDO; native enzyme in crude extract of D-Asp-induced strain UJ1 cells; FAD added
Assay: HRP-coupled phenol/4-aminoantipyrine H2O2 assay at […] nm, crude extract
Format: biochemical
Conditions: 20 mM D-Asp; 20 uM FAD; 50 mM potassium phosphate pH 8.0

T1 sequence (Q75WF1 whole entry): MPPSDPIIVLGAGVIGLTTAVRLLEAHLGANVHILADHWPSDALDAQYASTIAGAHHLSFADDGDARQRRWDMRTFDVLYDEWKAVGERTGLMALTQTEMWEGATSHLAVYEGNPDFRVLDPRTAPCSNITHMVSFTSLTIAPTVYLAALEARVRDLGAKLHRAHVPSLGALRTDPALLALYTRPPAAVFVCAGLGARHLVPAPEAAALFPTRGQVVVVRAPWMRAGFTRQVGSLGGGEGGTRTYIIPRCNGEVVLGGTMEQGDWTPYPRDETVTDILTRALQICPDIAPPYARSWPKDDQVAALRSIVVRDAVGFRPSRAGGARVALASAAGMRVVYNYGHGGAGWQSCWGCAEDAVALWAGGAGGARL

N[C@H](CC(=O)O)C(=O)O [D-Asp]
HRP-coupled phenol/4-aminoantipyrine H2O2 assay at 505 nm, crude extract: the enzyme activity in the crude extract of the ΔChpyc1 strain induced by D-Asp
